Values of other authors in US20190281871A1, “CHICORY PRODUCTS CONTAINING CANNABINOIDS” (Full Spectrum Laboratories Ltd, priority 2016, published 2019).

How the values were obtained:
CB1 receptor = CB1 receptor (Homo sapiens, UniProt P21554)
5-HT1A receptor = biological target: T1, 5-HT1A receptor (Homo sapiens, UniProt P08908)
T1 sequence (P08908 1-422): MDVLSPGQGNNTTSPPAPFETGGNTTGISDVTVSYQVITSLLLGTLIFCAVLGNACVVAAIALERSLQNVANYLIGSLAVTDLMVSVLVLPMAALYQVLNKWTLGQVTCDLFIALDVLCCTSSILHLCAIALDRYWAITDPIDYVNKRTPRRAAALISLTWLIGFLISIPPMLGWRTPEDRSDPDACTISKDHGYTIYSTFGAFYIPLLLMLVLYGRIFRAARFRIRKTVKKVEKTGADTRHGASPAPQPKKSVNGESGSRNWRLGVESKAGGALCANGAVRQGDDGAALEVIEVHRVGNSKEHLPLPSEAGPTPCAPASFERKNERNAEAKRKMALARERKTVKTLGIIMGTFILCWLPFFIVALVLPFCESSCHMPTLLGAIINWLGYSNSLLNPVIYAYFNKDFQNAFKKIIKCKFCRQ

Chain of CB1 receptor (P21554 whole entry): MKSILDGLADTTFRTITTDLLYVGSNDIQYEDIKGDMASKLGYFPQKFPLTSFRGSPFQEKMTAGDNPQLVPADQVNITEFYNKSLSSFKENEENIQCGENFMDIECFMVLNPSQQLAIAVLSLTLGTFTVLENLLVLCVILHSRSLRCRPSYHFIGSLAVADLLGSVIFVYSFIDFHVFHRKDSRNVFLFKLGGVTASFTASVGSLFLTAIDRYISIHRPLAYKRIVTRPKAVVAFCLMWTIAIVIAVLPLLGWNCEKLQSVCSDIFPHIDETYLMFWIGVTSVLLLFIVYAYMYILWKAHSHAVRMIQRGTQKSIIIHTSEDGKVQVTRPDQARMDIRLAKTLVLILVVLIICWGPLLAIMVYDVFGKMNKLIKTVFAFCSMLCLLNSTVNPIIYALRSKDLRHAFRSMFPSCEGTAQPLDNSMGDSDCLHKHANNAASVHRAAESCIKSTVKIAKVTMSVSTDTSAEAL

For CCCCCc1cc(O)c(C/C=C(\C)CCC=C(C)C)c(O)c1 [CBG, cannabigerol], the “α2-adrenergic receptor agonist affinity” value (α2-adrenergic receptor) is listed as “high affinity”, the “CB1 receptor antagonist affinity” value (CB1 receptor) is listed as “low affinity” and the “5-HT1A receptor antagonist affinity” value (5-HT1A receptor) is listed as “moderate affinity”.
